Data as given in BindingDB's records for doi:10.1016/j.bmcl.2010.08.042 (Vanderbilt University Medical Center, 2010).

Biological target: T1, Muscarinic acetylcholine receptor M1 (Homo sapiens, UniProt P11229)
T1 sequence (P11229 whole entry): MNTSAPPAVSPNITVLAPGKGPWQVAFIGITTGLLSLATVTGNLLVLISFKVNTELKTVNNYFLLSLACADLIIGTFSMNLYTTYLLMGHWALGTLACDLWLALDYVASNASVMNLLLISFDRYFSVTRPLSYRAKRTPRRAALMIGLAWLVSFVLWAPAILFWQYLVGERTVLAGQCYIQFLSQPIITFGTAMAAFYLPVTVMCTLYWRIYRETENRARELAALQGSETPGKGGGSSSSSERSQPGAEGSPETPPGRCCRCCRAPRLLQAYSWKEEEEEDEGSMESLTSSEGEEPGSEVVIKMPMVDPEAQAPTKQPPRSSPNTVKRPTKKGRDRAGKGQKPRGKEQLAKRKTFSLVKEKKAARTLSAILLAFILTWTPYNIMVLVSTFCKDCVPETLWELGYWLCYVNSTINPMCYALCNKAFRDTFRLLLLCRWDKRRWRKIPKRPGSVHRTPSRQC
Assay: Positive allosteric modulation of muscarinic M1 receptor expressed in CHO cells assessed as effect on acetylcholine-induced intracellular calcium mobilization after 1 hr by FLIPR assay

## O=C1C(=O)N(Cc2ccc(Br)cc2)c2ccccc21
  EC50: 6.1 µM
